Data set [1] concerns C6BAG cells. Nature of the data set: Ganciclovir sensitivity, cell proliferation assay. The data set is classed as cell-based, rat. The settings on record: even at 1000 nM ganciclovir. The method, then: (§1) Ganciclovir Sensitivity Assays in Culture: To measure the sensitivity of isolated cells, cells were plated in 24-well plates at a density of 10^4 cells per well. The next day, medium was replaced with medium containing ganciclovir (Cytovene, Burroughs Wellcome) at varying concentrations (0-1 μM) in quadruplicate. Four days later, cells were harvested using trypsin and counted using a cell counter (Coulter Electronics Ltd., Luton, United Kingdom). Cell growth is expressed as the percentage of cells compared to the number of cells without treatment (100%).

The subject of data set [2] is C6BAGWT cells. Nature of the data set: Ganciclovir sensitivity, cell proliferation assay. The data set is classed as cell-based, rat. The settings on record: even at 1000 nM ganciclovir. The method, then: as §1
Data set [3] concerns C6BBAG cells. Nature of the data set: Ganciclovir sensitivity, cell proliferation assay. The class given is cell-based, rat. The settings on record: even at 1000 nM ganciclovir. The method, then:
as §1

Data set [4] concerns C6BU1 (HSV-TK negative) cells. Kind of data set: Ganciclovir sensitivity, cell proliferation assay. The data set is classed as cell-based, rat. As to conditions: even at 1000 nM ganciclovir. The protocol: as §1
For data set [5], the system named is C6BWT cells. Kind of data set: Ganciclovir sensitivity, cell proliferation assay. The class given is cell-based, rat. As to conditions: even at 1000 nM ganciclovir. The method, then: as §1
The subject of data set [6] is C6BBAG cells co-cultured with C6VIKWT cells. Nature of the data set: Delayed co-culture, ganciclovir sensitivity of recipient colonies. The data set is classed as cell-based. The settings on record: Rattus norvegicus, ratio 1:2, read-out: ganciclovir concentration at which 50% of cells grew. The protocol: Donor C6VIK or C6VIKWT cells were then added to the cultures at a ratio of 1:2 (5×10^4 recipient cells: 10^5 donor cells). Control cultures consisted of C6BAG or C6BBAG cells alone, or C6BA6 or C6BBAG cells co-plated with "donor" C6BU1 or C6BWT cells, after delay, as above. After 10 days, ganciclovir was added at varying concentrations (0-300 μM) and cells were incubated for another 9-12 days with the drug. Cells were then fixed with 0.5% glutaraldehyde and stained histochemically for beta-galactosidase activity, as described (Price et al., Proc. Natl. Acad. Sci. USA 84:1141-1145 (1987)), and colonies were counted.

For data set [7], the system named is C6 cells exposed to CM from C6. Kind of data set: C6 colony formation after conditioned medium from drug-exposed cells. The data set is classed as cell-based, rat. The settings on record: for Colony numbers: colonies six days later.
The test system of data set [8] is C6 cells co-cultured with C6-P450 cells across a filter. Kind of data set: Secretory effect assay (insert system). As to conditions: Rattus norvegicus. The class given is cell-based. The protocol:
Secretory effect assay: To assess the effect of conditioned medium, cells were co-cultured in dishes using the "insert" system (Falcon). This consists of tissue culture dishes (diameter=3.5 cm), which contain a micropore membrane (pore diameter=0.45 μm) that physically separates cell populations plated into the upper and lower chambers but permits the exchange of components in the medium. C6 cells (3.4×10^5 cells) were plated into the bottom chamber, while C6-P450 (3.4×10^5 cells) or C6-Neo cells (3.4×10^5 cells) were plated into the upper chamber (on top of the filter) in a total volume of 5 mL of medium. After an overnight incubation, 0.5 mM CPA was added to this medium. Four days later, the membrane on which the C6-P450 or C6-Neo cells were growing was removed and then the number of C6 glioma cells in the lower chamber was determined by counting with a Coulter apparatus. Surviving C6 cells were then replated at a density of 2×10^5 cells per 10 cm dish without CPA. Nine days later, these cells were trypsinized and counted using the Coulter apparatus.

Data set [9] deals with parental 9L cells co-cultured with 9L-ZP cells. Kind of data set: Co-culture experiments with culture inserts. The data set is classed as cell-based, rat. The settings on record: 1 mM cyclophosphamide, 5 days, no cell contact. The method, then:
Co-culture Experiments: Parental 9L cells were plated in the bottom wells of culture plates (Falcon 3502), and cytochrome P450 2B1-negative or cytochrome P450 2B1-positive cells were plated into 25 mm cell culture inserts (0.45 μm pore size, Falcon 3090). Culture media were removed 18-24 hours later by aspiration. Culture medium without drug (1.0 mL) was added to the bottom well, and 1.0 mL medium containing drug was added to the upper cell culture insert. Cell numbers were determined 5 days later, as described above.

Data set [10] deals with MCF-7-Z3 cells. Nature of the data set: Cyclophosphamide sensitivity of MCF-7 cell lines in culture. The class given is cell-based, human. The method, then:
(§2) To test for drug sensitivity, 1×10^5 cells were plated in 30-mm tissue culture plates (Falcon 3046) in duplicate. Drugs were added 18-24 hours after seeding. Cells were allowed to grow for times ranging up to 5 days after drug treatment, and the final cell number was then determined. Cells were rinsed with phosphate buffered saline or Hank's buffered saline, dispersed using trypsin-EDTA (GIBCO/BRL, Inc.), and then counted with a hemocytometer. Results are expressed as a growth ratio, i.e., the number of cells in plates containing drug as a percentage of the corresponding drug-free controls (mean±range of duplicate determinations).
(§3) Transfection of MCF-7 cells with the cytochrome P450 2B1 expression plasmid, selection of neomycin-resistant clones, characterization of the expressed cytochrome P450 2B1 protein, and sensitivity of cell lines to drugs were carried out as described in Example 7 for the 9L cytochrome P450 2B1-expressing cell lines.

Data set [11] has as its system cytochrome P450 2B1-expressing MCF-7 cell lines P2, P3, P5, P8, P9 and P26. The data set is described as above. The class given is cell-based, human. The method, then:
as §2, §3

In data set [12] the test system is parental MCF-7 cells. The data set is described as above. The class given is cell-based, human. The method, then: as §2, §3
In data set [13] the test system is control tumor MCF-7 Z3. Nature of the data set: MCF-7 tumors in nude mouse model. As to conditions: 100 mg/kg ×2 intraperitoneal, day 0 and day 2. The data set is classed as in vivo, nude mice. The protocol: (§4) MCF-7 cells or stable MCF-7 cell transfectants expressing cytochrome P450 2B1 or E. coli β-galactosidase (lacZ) were grown in cell culture. Cells in the exponential growth phase were harvested and then injected subcutaneously (1×10^7 cells in 0.2 mL) in the flanks of nude mice. A single 17β-estradiol pellet (1.7 mg hormone/60-day release pellet, Innovative Research, Toledo, Ohio) was implanted one day before tumor inoculation. At one month after tumor inoculation, the size of each tumor was measured using a vernier caliper.
(§5) Nude mice were then treated with cyclophosphamide given at 100 mg/kg body weight×2, by intraperitoneal injection given on day 0 and again on day 2. Tumor size measurements were then again determined using a vernier caliper, and data are expressed relative to tumor sizes as of day 0, the day of initial cyclophosphamide (CPA) injection.

In data set [14] the test system is cytochrome P450 2B1-expressing MCF-7 cells. Nature of the data set: MCF-7 tumors in nude mouse model. The data set is classed as in vivo, nude mice. As to conditions: 100 mg/kg ×2 intraperitoneal, day 0 and day 2. The protocol: as §4, §5
The subject of data set [15] is C450-8 (C6-derived clone, cytochrome P450 2B1). Nature of the data set: Growth in the presence of 500 μM cyclophosphamide. The settings on record: 500 μM CPA, four days.

Structures are written as SMILES. Like-named read-outs stand apart in the source and are kept apart here.

`Nc1nc(O)c2ncn(COC(CO)CO)c2n1` [ganciclovir]: the Inhibition of growth entry in data set [1], in [2], in data set [3], in data set [4] and in data set [5] was “No substantial inhibition of growth” throughout. Also, the IC50 in [6] came out at 30 µM.
On to `O=P1(N(CCCl)CCCl)NCCCO1` (centres unmarked) [cyclophosphamide], for which the Colony numbers in [7] (CM after 0.5 h of 0.5 mM CPA) was found to be 247 ± 3; in data set [7] (CM after 1.5 h of 0.5 mM CPA), 256 ± 7; in data set [7] (CM after 3 h of 0.5 mM CPA) it was 257 ± 1; in [7] (CM after 6 h of 0.5 mM CPA) it was 260 ± 4; in data set [7] (CM after 10 h of 0.5 mM CPA), 245 ± 5; in [7] (CM after 24 h of 0.5 mM CPA), 255 ± 14. The Colony numbers in [7] (CM after 32 h of 0.5 mM CPA) amounted to 240 ± 2; in data set [7] (CM after 48 h of 0.5 mM CPA), 245 ± 6; in [7] (CM after 72 h of 0.5 mM CPA), 260 ± 5; in data set [7] (CM after 96 h of 0.5 mM CPA), 260 ± 9. In data set [7] (Table V panel C, CM from treated C6 cultures), the “Secretion effect, C6 colony number” value came to 271±14.2. The inhibition at 500 µM is roughly 50% in data set [8] (C6, 96 h, 0.5 mM CPA, 1:1 ratio, four days, read-out: decrease in the number of C6 cells); roughly 90% in [8] (C6, 216 h, replated without CPA, nine days, read-out: decrease in C6 cell number after trypsinization and replating). The “Killing of both cell populations” value in data set [9] is recorded as “killed”. Also, the Sensitivity to cyclophosphamide result in data set [10] and in data set [12] was “insensitive to high concentrations” each time. In addition, the “Sensitivity to cyclophosphamide cytotoxicity” value in data set [11] is listed as “highly sensitive”. In [13], the “Tumor cyclophosphamide sensitivity in vivo” value is reported as “only a moderate cyclophosphamide sensitivity”. Moreover, the “Tumor cell kill in vivo” value in data set [14] was “preferentially killed”. For the same compound, in [15], the Cell destruction result is reported as “destroyed completely”.

The values above are taken from patent publication US5688773A, “Method of selectively destroying neoplastic cells” (priority 1994, dated 1997).
